{
  "source": "paper PMC6143478",
  "about": "“Lipophilic activated ester prodrug approach for drug delivery to the intestinal lymphatic system” (Journal of Controlled Release, 2018)",
  "key": {"[1]": {"assay": "Biodistribution to mesenteric lymph nodes (MLN) and lymph following oral administration in rats", "type": "in vivo", "details": "dose equivalent to 10 mg/kg BEX, rat; for Kp: male, Sprague Dawley, intact prodrug", "experimental": "The protocols for pharmacokinetic and biodistribution experiments in this study were reviewed and approved by the University of Nottingham Ethical Review Committee in accordance with the Animals [Scientific Procedures] Act 1986. Male Sprague Dawley rats (Charles River Laboratories, UK) weighing 350–380 g were used. The animals were housed in the Bio Support Unit, University of Nottingham. Continuous lymph collection was performed according to a protocol approved by the Institutional Animal Care and Use Committee at Rutgers, The State University of New Jersey. Male Sprague Dawley rats (Envigo, Inc., NJ, USA) weighing 300–350 g were used for the continuous lymph collection. Animals were allowed free access to food and water and were acclimatised for at least 6 days prior to any procedures at both institutions in a controlled-temperature environment with 12 h light/dark cycles.\nFormulations were prepared as described in the above pharmacokinetic study and were delivered by an oral gavage. Animals were euthanised at pre-determined time points. Blood was collected from the posterior vena cava and lymph samples were taken from the mesenteric lymph duct. MLNs were dissected and collected as previously described. The MLNs were isolated from surrounding tissue with care not to compromise the integrity of the lymph nodes. The MLNs were homogenised (POLYTRON® PT 10–35 GT, Kinematica AG, Luzern, Switzerland) with 10 mg/mL NaF in water (1,2, w/v) on an ice bath prior to sample preparation for HPLC analysis.\nA combination of protein precipitation and liquid-liquid extraction was applied to samples prior to HPLC injection. To 100 μL sample, 300 μL of acetonitrile was added for protein precipitation and then 300 μL of pH modifier was added when necessary (Supplementary Material Table S2). […] The organic layer was separated and evaporated under N2 gas. Reconstitution solvent (100 μL) was used as detailed in Supplementary Material Table S2 and 40 μL was injected into the HPLC-UV system. […] Therefore, storage and preparation of all samples were performed within the time frame and conditions of confirmed stability.\nThe HPLC-UV system consisting of a separation module (Waters Alliance 2695) equipped with a UV detector (Waters 996) was used for analysis. Samples in the autosampler were maintained at 4 °C and the column at 40 °C. The stationary and mobile phases were used as specified in Supplementary Material Table S2. BEX and its prodrugs were detected at 259 nm and RA and its prodrugs at 357 nm."}, "human chylomicrons (CM)": {"tested_on": "human chylomicrons (CM)", "assay": "Ex vivo association with human plasma-derived chylomicrons", "type": "in vitro ADME", "details": "1.755 μM, 37 °C, 1 h; in words, relative to parent drug", "source_text": "The protocol for preparation of human plasma-derived CM emulsion was approved by the Faculty of Medicine and Health Sciences Research Ethics Committee, Queens Medical Centre, Nottingham University Hospitals (BT12102015 CBS SoP). Healthy male volunteers of 19–40 years old and with body mass index of 18.5–25.0 were enrolled in the study after providing informed consent. The participants were excluded if any medication was used within one week prior to enrolment. On the morning of the study, participants received a high-fat meal (equivalent to a full English breakfast). Between 3 and 4 h following breakfast, 30 mL of blood was collected using heparinised tubes (Vacutainer® Blood Collection Tubes) and centrifuged (800 g, 10 min, 15 °C) to obtain plasma.\nCM separation was performed as previously reported with minor modifications. Briefly, KBr (0.57 g) was mixed with 4 mL of plasma to yield density of 1.1 g/mL. PBS with densities of 1.006, 1.019, and 1.063 g/mL were prepared by adding appropriate amounts of KBr. These PBS of different densities were layered on top of the plasma to build density gradient layers in polyallomer ultracentrifuge tubes. The samples were then centrifuged at 268,350 g for 35 min at 15 °C using an ultracentrifuge (SORVALL® TH-641 Rotor, Thermo Fisher Scientific, UK). Following ultracentrifugation, approximately 1 mL of the upper layer containing CM was collected. TG concentration of CM emulsion was assessed using the TG enzymatic kit (Sigma Aldrich, Dorset, UK). TG concentration of the emulsion was adjusted to 100 mg/dL by diluting with PBS of 1.006 g/mL density. The CM emulsion was stored at 4 °C until the association assay (˂24 h).\nThe association of the compounds with artificial lipid particle emulsion and human CM was assessed using previously reported methodology with minor modifications. Briefly, 1 mL of artificial lipid particle or CM emulsions (TG concentration 100 mg/dL) was used for the association assay. The emulsion was spiked with stock solutions of tested compounds (in acetonitrile) to give a final concentration of 1.755 μM. The reaction mixtures were incubated at 37 °C for 1 h with magnetic stirring at 300 rpm. Following the incubation, density gradient ultracentrifugation was applied as described above to isolate the artificial lipid particles or CM associated with the tested compounds from the rest of the experimental medium. All experiments were conducted in quintuplicates or above."}, "[2]": {"assay": "Prodrug conversion assay in rat plasma", "type": "in vitro ADME", "experimental": "(§1) The prodrugs were tested for their stability and conversion into their corresponding active drug using fasted state simulated intestinal fluid (FaSSIF) with added esterase enzyme activity (20 IU/mL), rat plasma, and postprandial rat lymph. The FaSSIF was prepared as previously described in the literature. The medium was pre-heated to 37 °C prior to the assay for 5 min. The experiment was initiated by spiking stock solutions of prodrugs to give a final concentration of 10 μM of the prodrugs in the medium. When the stability of the artificial emulsion-associated prodrugs was tested in plasma, the association of compounds with artificial emulsion was performed prior to stability experiments and the concentrations of the compounds in the associated emulsion were measured. The emulsion was then spiked to give a concentration of 10 μM of the prodrugs in plasma. The reaction mixtures were incubated at 37 °C and shaken at 200 rpm on a temperature-controlled orbital shaker (Thermo Scientific MaxQ4000, Waltham, MA, USA) for 4 h. Samples were withdrawn at pre-determined time points, and the reaction was terminated by addition of acetonitrile. The samples were then subjected to sample preparation and analysis as described below. The natural log percentage of the prodrug concentration was plotted against incubation time, and the slope (k) was obtained from the plot. Half-life of active drug release (t1/2) was calculated by the following equation: t1/2 = −0.693/k. All experiments were conducted in triplicate."}, "[3]": {"assay": "Prodrug conversion assay in postprandial rat lymph", "type": "in vitro ADME", "details": "CM-rich postprandial rat lymph, ex vivo; relative to rat plasma", "experimental": "as §1, with “The natural log percentage of the prodrug concentration was plotted against incubation time, and the slope (k) was obtained from the plot.” left out, “All experiments were conducted in triplicate.” left out"}},
  "note": "Read-outs that look alike come from different tables or passages of the source.",
  "data": [
    {"smiles": "C=C(c1ccc(C(=O)OCC)cc1)c1cc2c(cc1C)C(C)(C)CCC2(C)C", "note": "[prodrug 2]", "values": [
      {"measurement": "concentrations of BEX in intestinal lymphatics (MLNs, lymph) relative to plasma", "setting": "[1]; BEX analyte, in words", "value": "comparable between the three matrices"},
      {"measurement": "Kp", "setting": "[1]; mesenteric lymph / plasma, read-out: concentration of prodrug in lymph compared to plasma", "value": 41},
      {"measurement": "Kp", "setting": "[1]; mesenteric lymph nodes (MLN) / plasma, read-out: concentration of prodrug in MLNs compared to plasma", "value": 6},
      {"measurement": "association with human chylomicrons (CM)", "setting": "human chylomicrons (CM)", "value": "equally high affinity to CM"},
      {"measurement": "conversion of emulsion-associated form of prodrug in rat plasma", "setting": "[2]; prodrug incorporated into Intralipid lipid particles, 10 μM, relative to free form", "value": "delayed conversion"},
      {"measurement": "half-life at 10 μM", "setting": "[2]; rat, plasma, in vitro, 37 °C, free form, read-out: half-life of active drug release in rat plasma", "value": 20, "unit": "min"},
      {"measurement": "half-life of active drug release in postprandial lymph", "setting": "[3]", "value": "prolonged"}
    ]}
  ]
}
